Measurements as given in publication PMC10879502, “Linking ATP and allosteric sites to achieve superadditive binding with bivalent EGFR kinase inhibitors” (Communications Chemistry, 2024).

Experiments:
Assay in all cases: KINOMEscan
Format in all cases: binding
Details in all cases: 1 μM
RIOK1 = RIOK1 (Homo sapiens, UniProt Q9BRS2)
FAK = FAK (Homo sapiens, UniProt Q05397)
NEK10 = target: T1, NEK10 (Homo sapiens, UniProt Q6ZWH5)
T1 construct: purchased Eurofins DiscoverX Corporation

p38-beta = p38-beta (Homo sapiens, UniProt Q15759)
Chain of p38-beta (Q15759 whole entry): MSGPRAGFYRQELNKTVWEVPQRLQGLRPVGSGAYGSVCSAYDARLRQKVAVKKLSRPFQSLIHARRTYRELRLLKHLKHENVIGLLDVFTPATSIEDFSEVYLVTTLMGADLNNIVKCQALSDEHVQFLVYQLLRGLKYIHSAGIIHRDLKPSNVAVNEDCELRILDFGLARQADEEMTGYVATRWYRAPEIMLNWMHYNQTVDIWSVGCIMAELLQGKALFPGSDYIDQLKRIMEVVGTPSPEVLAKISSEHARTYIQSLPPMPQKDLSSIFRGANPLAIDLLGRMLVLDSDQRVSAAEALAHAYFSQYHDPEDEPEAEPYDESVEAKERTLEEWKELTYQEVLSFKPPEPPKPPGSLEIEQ

HASPIN = target: T2, HASPIN (Homo sapiens, UniProt Q8TF76)
T2 construct: purchased Eurofins DiscoverX Corporation

CDK7 = CDK7 (Homo sapiens, UniProt P50613)
Chain of CDK7 (P50613 whole entry): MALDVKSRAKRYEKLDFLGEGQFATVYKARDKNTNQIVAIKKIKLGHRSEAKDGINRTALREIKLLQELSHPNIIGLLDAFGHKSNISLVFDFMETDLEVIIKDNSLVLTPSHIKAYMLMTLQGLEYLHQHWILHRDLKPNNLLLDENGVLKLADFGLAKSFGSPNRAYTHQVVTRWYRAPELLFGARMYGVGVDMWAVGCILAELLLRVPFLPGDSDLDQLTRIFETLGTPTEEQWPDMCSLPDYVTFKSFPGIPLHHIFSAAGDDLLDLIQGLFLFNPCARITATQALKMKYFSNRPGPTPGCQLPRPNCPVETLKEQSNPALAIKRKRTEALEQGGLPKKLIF

LYN = target: T3, LYN (Homo sapiens, UniProt P07948)
T3 construct: purchased Eurofins DiscoverX Corporation

DCAMKL2 = target: T4, DCAMKL2 (Homo sapiens, UniProt Q8N568)
T4 construct: purchased Eurofins DiscoverX Corporation

[1] = target: T5, JAK3(JH1domain-catalytic) (Homo sapiens, UniProt P52333)
T5 construct: JAK3(JH1domain-catalytic); purchased Eurofins DiscoverX (KINOMEscan)

VRK2 = VRK2 (Homo sapiens, UniProt Q86Y07)
ABL1-nonphosphorylated = target: T6, ABL1-nonphosphorylated (Homo sapiens, UniProt P00519)
T6 construct: purchased Eurofins DiscoverX Corporation

MARK2 = target: T7, MARK2 (Homo sapiens, UniProt Q7KZI7)
T7 construct: purchased Eurofins DiscoverX Corporation

CSNK2A2 = target: T8, CSNK2A2 (Homo sapiens, UniProt P19784)
T8 construct: purchased Eurofins DiscoverX Corporation

MUSK = target: T9, MUSK (Homo sapiens, UniProt O15146)
T9 construct: purchased Eurofins DiscoverX Corporation

SLK = SLK (Homo sapiens, UniProt Q9H2G2)
RIOK3 = RIOK3 (Homo sapiens, UniProt O14730)
MET(Y1235D) = target: T10, MET(Y1235D) (Homo sapiens, UniProt P08581, Y1235D)
T10 construct: purchased Eurofins DiscoverX Corporation

FLT3(D835H) = FLT3(D835H) (Homo sapiens, UniProt P36888, D835H)
ACVR1 = target: T11, ACVR1 (Homo sapiens, UniProt Q04771)
T11 construct: purchased Eurofins DiscoverX Corporation

ALK(L1196M) = ALK(L1196M) (Homo sapiens, UniProt Q9UM73, L1196M)
BMPR1B = target: T12, BMPR1B (Homo sapiens, UniProt O00238)
T12 construct: purchased Eurofins DiscoverX Corporation (KINOMEscan)
T12 sequence (O00238 14-502): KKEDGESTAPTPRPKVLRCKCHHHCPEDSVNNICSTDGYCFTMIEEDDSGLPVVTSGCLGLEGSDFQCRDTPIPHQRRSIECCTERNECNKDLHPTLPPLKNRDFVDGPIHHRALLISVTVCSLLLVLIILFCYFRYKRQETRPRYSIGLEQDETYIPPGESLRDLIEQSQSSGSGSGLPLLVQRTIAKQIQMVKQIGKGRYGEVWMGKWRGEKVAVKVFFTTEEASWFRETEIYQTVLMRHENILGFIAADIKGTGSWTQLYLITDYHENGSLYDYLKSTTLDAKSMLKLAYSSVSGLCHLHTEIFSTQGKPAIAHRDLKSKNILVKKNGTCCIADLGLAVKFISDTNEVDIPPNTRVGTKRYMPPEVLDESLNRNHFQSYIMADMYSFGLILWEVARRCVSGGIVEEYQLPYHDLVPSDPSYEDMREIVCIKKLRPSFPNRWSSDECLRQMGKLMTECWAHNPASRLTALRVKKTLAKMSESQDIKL

ERK8 = ERK8 (Homo sapiens, UniProt Q8TD08)
PRKG2 = PRKG2 (Homo sapiens, UniProt Q13237)
Chain of PRKG2 (Q13237 whole entry): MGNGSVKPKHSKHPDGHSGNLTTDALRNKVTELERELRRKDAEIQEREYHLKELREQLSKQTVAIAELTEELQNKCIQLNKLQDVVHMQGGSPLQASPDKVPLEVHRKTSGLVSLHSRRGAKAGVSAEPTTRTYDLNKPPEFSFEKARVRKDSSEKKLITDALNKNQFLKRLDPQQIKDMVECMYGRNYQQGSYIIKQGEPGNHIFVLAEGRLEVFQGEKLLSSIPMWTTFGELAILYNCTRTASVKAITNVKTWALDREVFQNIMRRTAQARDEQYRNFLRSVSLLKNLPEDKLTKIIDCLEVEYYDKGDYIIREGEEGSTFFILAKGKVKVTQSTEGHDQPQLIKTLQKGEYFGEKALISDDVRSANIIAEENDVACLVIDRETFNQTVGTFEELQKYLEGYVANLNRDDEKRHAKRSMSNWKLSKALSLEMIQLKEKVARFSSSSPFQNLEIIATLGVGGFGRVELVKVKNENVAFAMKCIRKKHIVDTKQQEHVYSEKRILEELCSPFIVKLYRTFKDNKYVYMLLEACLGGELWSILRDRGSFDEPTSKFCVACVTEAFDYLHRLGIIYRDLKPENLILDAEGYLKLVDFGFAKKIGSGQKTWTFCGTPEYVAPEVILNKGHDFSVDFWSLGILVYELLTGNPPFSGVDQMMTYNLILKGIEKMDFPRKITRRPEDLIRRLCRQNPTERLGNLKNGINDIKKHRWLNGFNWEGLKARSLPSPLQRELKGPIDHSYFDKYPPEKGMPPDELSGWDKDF

PIK3CA(Q546K) = PIK3CA(Q546K) (Homo sapiens, UniProt P42336, Q546K)
GAK = target: T13, GAK (Homo sapiens, UniProt O14976)
T13 construct: purchased Eurofins DiscoverX Corporation
T13 sequence (O14976 whole entry): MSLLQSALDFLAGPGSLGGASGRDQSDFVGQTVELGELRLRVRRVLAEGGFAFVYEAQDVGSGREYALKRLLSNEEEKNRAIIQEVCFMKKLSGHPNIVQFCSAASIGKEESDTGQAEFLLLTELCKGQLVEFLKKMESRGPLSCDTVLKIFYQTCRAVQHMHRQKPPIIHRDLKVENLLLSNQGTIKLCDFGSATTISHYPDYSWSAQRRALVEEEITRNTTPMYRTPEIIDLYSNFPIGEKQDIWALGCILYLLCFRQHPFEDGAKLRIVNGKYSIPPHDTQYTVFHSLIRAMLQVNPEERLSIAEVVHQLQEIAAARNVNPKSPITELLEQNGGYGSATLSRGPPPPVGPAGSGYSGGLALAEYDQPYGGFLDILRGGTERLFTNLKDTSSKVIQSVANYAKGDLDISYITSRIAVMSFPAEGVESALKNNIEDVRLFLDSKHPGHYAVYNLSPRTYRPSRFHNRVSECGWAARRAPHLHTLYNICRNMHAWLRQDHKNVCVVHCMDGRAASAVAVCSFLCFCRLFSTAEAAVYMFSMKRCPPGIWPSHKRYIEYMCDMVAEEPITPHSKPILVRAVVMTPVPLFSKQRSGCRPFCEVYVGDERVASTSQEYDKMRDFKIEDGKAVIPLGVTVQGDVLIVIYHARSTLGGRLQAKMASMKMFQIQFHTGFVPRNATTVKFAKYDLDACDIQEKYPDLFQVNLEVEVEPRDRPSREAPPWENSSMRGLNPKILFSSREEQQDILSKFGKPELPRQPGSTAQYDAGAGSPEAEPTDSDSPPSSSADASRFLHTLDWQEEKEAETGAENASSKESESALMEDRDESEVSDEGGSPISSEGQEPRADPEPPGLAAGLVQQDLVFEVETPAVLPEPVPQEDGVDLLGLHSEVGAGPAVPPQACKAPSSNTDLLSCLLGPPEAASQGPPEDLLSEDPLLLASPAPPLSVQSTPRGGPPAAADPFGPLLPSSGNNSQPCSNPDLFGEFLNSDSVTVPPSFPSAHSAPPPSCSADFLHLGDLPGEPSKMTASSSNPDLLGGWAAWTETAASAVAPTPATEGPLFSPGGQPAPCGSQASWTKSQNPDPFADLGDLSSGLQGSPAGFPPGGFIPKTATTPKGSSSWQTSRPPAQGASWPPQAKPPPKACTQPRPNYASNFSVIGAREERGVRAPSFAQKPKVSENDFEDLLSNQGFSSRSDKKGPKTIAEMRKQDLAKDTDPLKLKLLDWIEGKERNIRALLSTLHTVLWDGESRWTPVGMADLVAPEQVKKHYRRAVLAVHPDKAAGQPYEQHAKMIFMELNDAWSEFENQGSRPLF

PRKX = PRKX (Homo sapiens, UniProt P51817)
PRKCE = PRKCE (Homo sapiens, UniProt Q02156)
Chain of PRKCE (Q02156 whole entry): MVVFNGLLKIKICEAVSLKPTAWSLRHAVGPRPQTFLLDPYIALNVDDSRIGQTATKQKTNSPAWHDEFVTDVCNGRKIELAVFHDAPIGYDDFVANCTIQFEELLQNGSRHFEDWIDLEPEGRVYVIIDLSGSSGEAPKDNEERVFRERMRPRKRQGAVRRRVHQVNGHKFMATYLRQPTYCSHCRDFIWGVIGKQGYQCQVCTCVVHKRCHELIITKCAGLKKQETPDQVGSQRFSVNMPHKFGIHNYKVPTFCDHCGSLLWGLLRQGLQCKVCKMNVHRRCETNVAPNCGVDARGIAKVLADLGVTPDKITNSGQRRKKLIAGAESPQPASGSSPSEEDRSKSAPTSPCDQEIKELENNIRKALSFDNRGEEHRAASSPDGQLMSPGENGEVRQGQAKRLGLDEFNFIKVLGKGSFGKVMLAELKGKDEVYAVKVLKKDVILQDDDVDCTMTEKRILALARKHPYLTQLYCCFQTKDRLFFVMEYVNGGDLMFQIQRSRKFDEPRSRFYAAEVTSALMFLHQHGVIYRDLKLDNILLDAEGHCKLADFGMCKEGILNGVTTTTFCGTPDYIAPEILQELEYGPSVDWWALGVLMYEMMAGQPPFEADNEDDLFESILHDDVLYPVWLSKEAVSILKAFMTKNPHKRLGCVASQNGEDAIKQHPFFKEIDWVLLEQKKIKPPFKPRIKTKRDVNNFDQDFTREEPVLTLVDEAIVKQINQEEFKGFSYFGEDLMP

TLK2 = target: T14, TLK2 (Homo sapiens, UniProt Q86UE8)
T14 construct: purchased Eurofins DiscoverX Corporation

DDR1 = target: T15, DDR1 (Homo sapiens, UniProt Q08345)
T15 construct: purchased Eurofins DiscoverX Corporation

KIT(V559D+T670I) = target: T16, KIT(V559D+T670I) (Homo sapiens, UniProt P10721, T670I/V559D)
T16 construct: purchased Eurofins DiscoverX Corporation

FLT3(D835Y) = FLT3(D835Y) (Homo sapiens, UniProt P36888, D835Y)
EGFR(G719C) = EGFR(G719C) (Homo sapiens, UniProt P00533, G719C)
SRPK3 = SRPK3 (Homo sapiens, UniProt Q9UPE1)
RIPK2 = RIPK2 (Homo sapiens, UniProt O43353)
Chain of RIPK2 (O43353 whole entry): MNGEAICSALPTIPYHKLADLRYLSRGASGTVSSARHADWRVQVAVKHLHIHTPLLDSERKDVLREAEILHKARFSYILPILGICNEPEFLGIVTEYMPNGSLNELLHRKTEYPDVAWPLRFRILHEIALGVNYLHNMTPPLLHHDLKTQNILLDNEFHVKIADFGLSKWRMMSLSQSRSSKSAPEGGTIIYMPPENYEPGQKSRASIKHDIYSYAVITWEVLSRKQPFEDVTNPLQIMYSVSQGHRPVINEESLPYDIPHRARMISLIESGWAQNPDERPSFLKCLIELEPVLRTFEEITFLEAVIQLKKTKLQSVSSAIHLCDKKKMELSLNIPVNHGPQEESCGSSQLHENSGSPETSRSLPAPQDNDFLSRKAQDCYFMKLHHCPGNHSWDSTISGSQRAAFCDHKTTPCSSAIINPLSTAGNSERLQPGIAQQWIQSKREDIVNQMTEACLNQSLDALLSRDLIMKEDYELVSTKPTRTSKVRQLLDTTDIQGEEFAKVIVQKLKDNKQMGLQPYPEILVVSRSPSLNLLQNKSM

FLT3(R834Q) = target: T17, FLT3(R834Q) (Homo sapiens, UniProt P36888, R834Q)
T17 construct: purchased Eurofins DiscoverX Corporation

ROCK2 = ROCK2 (Homo sapiens, UniProt O75116)
PFPK5(P.falciparum) = PFPK5(P.falciparum) (Plasmodium falciparum, UniProt P61075)
TAOK1 = target: T18, TAOK1 (Homo sapiens, UniProt Q7L7X3)
T18 construct: purchased Eurofins DiscoverX Corporation

TIE2 = target: T19, TIE2 (Homo sapiens, UniProt Q02763)
T19 construct: purchased Eurofins DiscoverX Corporation

LKB1 = target: T20, LKB1 (Homo sapiens, UniProt Q15831)
T20 construct: purchased Eurofins DiscoverX Corporation
T20 sequence (Q15831 whole entry): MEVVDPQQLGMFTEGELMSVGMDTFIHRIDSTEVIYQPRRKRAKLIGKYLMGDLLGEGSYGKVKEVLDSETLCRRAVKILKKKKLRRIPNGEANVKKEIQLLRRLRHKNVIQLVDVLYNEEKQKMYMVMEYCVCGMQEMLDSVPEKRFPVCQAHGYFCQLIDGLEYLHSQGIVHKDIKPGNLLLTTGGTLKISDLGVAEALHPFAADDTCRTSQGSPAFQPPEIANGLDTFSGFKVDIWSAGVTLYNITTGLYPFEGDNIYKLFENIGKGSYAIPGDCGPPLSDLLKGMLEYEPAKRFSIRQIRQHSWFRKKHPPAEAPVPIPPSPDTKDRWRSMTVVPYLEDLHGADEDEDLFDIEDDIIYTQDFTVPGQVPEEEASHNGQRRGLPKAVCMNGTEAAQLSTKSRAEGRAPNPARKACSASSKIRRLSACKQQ

CDKL2 = CDKL2 (Homo sapiens, UniProt Q92772)
[2] = target: T21, ABL1(T315I)-nonphosphorylated (Homo sapiens, UniProt P00519, T315I)
T21 construct: purchased Eurofins DiscoverX Corporation

C=CC(=O)Nc1ccc(OC)c(Nc2cc(-c3[nH]c(CC)nc3-c3cccc(NC(=O)c4cccc5c4NC(=O)c4ccccc4N5)c3)ccn2)c1 [Compound 4]
POC (RIOK1): 100% of control | POC (FAK): 99% of control | POC (NEK10): 86% of control | POC (p38-beta): 59% of control | POC (HASPIN): 100% of control | POC (CDK7): 49% of control | POC (LYN): 22% of control | POC (DCAMKL2): 100% of control | POC [1]: 100% of control | POC (VRK2): 100% of control | POC (ABL1-nonphosphorylated): 100% of control | POC (MARK2): 85% of control | POC (CSNK2A2): 58% of control | POC (MUSK): 100% of control | POC (SLK): 100% of control | POC (RIOK3): 100% of control | POC (MET(Y1235D)): 97% of control | POC (FLT3(D835H)): 92% of control | POC (ACVR1): 96% of control | POC (ALK(L1196M)): 89% of control | POC (BMPR1B): 100% of control | POC (ERK8): 100% of control | POC (PRKG2): 62% of control | POC (PIK3CA(Q546K)): 100% of control | POC (GAK): 16% of control | POC (PRKX): 100% of control | POC (PRKCE): 100% of control | POC (TLK2): 87% of control | POC (DDR1): 90% of control | POC (KIT(V559D+T670I)): 95% of control | POC (FLT3(D835Y)): 96% of control | POC (EGFR(G719C)): 6.5% of control | POC (SRPK3): 100% of control | POC (RIPK2): 62% of control | POC (FLT3(R834Q)): 100% of control | POC (ROCK2): 94% of control | POC (PFPK5(P.falciparum)): 100% of control | POC (TAOK1): 100% of control | POC (TIE2): 71% of control | POC (LKB1): 100% of control | POC (CDKL2): 100% of control | POC [2]: 98% of control
